Broadly, the Ki is a measure of affinity in units of concentration, obtained from inhibition or displacement.

The target in one experiment is T1, purified human Factor XIa (Homo sapiens, UniProt P03951).
T1 construct: purchased Haematologic Technologies
T1 sequence (P03951 388-625 limits assumed): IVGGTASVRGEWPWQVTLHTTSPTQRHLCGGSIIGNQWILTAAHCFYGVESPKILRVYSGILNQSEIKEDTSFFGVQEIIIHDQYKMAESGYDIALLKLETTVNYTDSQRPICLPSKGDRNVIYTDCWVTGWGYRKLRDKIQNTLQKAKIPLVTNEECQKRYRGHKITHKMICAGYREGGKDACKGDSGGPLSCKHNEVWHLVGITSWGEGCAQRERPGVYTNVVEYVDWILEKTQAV
T1 sequence (P03951 19-387 partner limits assumed): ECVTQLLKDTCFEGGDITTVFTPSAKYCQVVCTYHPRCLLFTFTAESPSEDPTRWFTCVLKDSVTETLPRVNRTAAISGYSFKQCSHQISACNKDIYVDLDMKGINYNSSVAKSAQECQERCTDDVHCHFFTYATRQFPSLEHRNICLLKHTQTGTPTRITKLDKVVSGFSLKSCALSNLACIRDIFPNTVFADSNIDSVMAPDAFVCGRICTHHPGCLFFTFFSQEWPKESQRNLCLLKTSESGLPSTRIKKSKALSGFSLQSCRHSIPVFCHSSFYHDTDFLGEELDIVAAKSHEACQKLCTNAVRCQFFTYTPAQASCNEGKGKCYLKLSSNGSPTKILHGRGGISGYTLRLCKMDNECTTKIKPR
Nature of the experiment: Factor XIa enzyme inhibition assay (chromogenic substrate S-2366), Ki. It is filed as biochemical. The note with it: substrate S-2366, pH 7.4. In short, it runs like this:
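Purified human Factor XIa ([…] final) with chromogenic substrate S-2366 (0.0002-0.001 M) in 50 mM HEPES pH 7.4, 145 mM NaCl, 5 mM KCl, 0.1% PEG 8000. Velocities measured over 20-180 minutes with and without inhibitor; Ki derived assuming competitive inhibition, e.g. Ki=IC50/(1+S/Km).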
For `COC(=O)Cn1cc(NC(=O)[C@H](Cc2ccccc2)n2cnc(-c3cc(Cl)ccc3-n3cc(Cl)nn3)cc2=O)cn1` [Example 10, Methyl 2-{4-[(2S)-2-{4-[5-chloro-2-(4-chloro-1H-1,2,3-triazol-1-yl)phenyl]-6-oxo-1,6-dihydropyrimidin-1-yl}-3-phenylpropanamido]-1H-pyrazol-1-yl}acetate], affinity was put at a Ki of 104 nM.

In turn, `NC(=O)c1ccc(NC(=O)[C@H](Cc2ccccc2)n2cnc(-c3cc(Cl)ccc3-n3cc(Cl)nn3)cc2=O)nc1` [Example 111, (S)-6-(2-(4-(5-chloro-2-(4-chloro-1H-1,2,3-triazol-1-yl)phenyl)-6-oxopyrimidin-1(6H)-yl)-3-phenylpropanamido)nicotinamide] gave a Ki of 106 nM.

Molecule `N=C(N)c1ccc(NC(=O)[C@H](Cc2ccccc2)n2cnc(-c3cc(Cl)ccc3-n3cc(Cl)nn3)cc2=O)cc1` [Example 112, (S)-N-(4-carbamimidoylphenyl)-2-(4-(5-chloro-2-(4-chloro-1H-1,2,3-triazol-1-yl)phenyl)-6-oxopyrimidin-1(6H)-yl)-3-phenylpropanamide] had a Ki of 277 nM.

`Cc1ccc2c(NC(=O)[C@H](Cc3ccccc3)n3cnc(-c4cc(Cl)ccc4-n4cc(Cl)nn4)cc3=O)noc2c1` [Example 113, (S)-2-(4-(5-chloro-2-(4-chloro-1H-1,2,3-triazol-1-yl)phenyl)-6-oxopyrimidin-1(6H)-yl)-N-(6-methylbenzo[d]isoxazol-3-yl)-3-phenylpropanamide] came in with a Ki of 74 nM.

Consider `O=C(Nc1noc2cc(Br)ccc12)[C@H](Cc1ccccc1)n1cnc(-c2cc(Cl)ccc2-n2cc(Cl)nn2)cc1=O` [Example 114, (S)-N-(6-bromobenzo[d]isoxazol-3-yl)-2-(4-(5-chloro-2-(4-chloro-1H-1,2,3-triazol-1-yl)phenyl)-6-oxopyrimidin-1(6H)-yl)-3-phenylpropanamide], for which the Ki was determined as 336 nM.

In turn, `O=C(Nc1noc2c(Cl)cccc12)[C@H](Cc1ccccc1)n1cnc(-c2cc(Cl)ccc2-n2cc(Cl)nn2)cc1=O` [Example 115, (S)-2-(4-(5-chloro-2-(4-chloro-1H-1,2,3-triazol-1-yl)phenyl)-6-oxopyrimidin-1(6H)-yl)-N-(7-chlorobenzo[d]isoxazol-3-yl)-3-phenylpropanamide] showed a Ki of 305 nM.

Regarding `Cc1nc2ccc(CNC(=O)[C@H](Cc3ccccc3)n3cnc(-c4cc(Cl)ccc4-n4cc(Cl)nn4)cc3=O)cc2[nH]1` [Example 116, (S)-2-(4-(5-chloro-2-(4-chloro-1H-1,2,3-triazol-1-yl)phenyl)-6-oxopyrimidin-1(6H)-yl)-N-((2-methyl-1H-benzo[d]imidazol-6-yl)methyl)-3-phenylpropanamide], the Ki is 463 nM.

`O=C1NCc2ccc(NC(=O)[C@H](Cc3ccccc3)n3cnc(-c4cc(Cl)ccc4-n4cc(Cl)nn4)cc3=O)cc21` [Example 117, (S)-2-(4-(5-chloro-2-(4-chloro-1H-1,2,3-triazol-1-yl)phenyl)-6-oxopyrimidin-1(6H)-yl)-N-(3-oxoisoindolin-5-yl)-3-phenylpropanamide] gave a Ki of 102 nM.

`NC(=O)c1ccc(NC(=O)[C@H](Cc2ccccc2)n2cnc(-c3cc(Cl)ccc3-n3cc(Cl)nn3)cc2=O)cc1` [Example 118, (S)-4-(2-(4-(5-chloro-2-(4-chloro-1H-1,2,3-triazol-1-yl)phenyl)-6-oxopyrimidin-1(6H)-yl)-3-phenylpropanamido)benzamide] had a Ki of 33.3 nM.

As to `O=C(Nc1cnn(-c2ccc(Cl)cc2)c1)[C@H](Cc1ccccc1)n1cnc(-c2cc(Cl)ccc2-n2cc(Cl)nn2)cc1=O` [Example 119, (S)-2-(4-(5-chloro-2-(4-chloro-1H-1,2,3-triazol-1-yl)phenyl)-6-oxopyrimidin-1(6H)-yl)-N-(1-(4-chlorophenyl)-1H-pyrazol-4-yl)-3-phenylpropanamide], affinity was put at a Ki of 408 nM.

`O=C(Nc1cnn(-c2ccccc2)c1)[C@H](Cc1ccccc1)n1cnc(-c2cc(Cl)ccc2-n2cc(Cl)nn2)cc1=O` [Example 120, (S)-2-(4-(5-chloro-2-(4-chloro-1H-1,2,3-triazol-1-yl)phenyl)-6-oxopyrimidin-1(6H)-yl)-3-phenyl-N-(1-phenyl-1H-pyrazol-4-yl)propanamide] returned a Ki of 549 nM.

Take `O=C(Nc1noc2ccccc12)[C@H](Cc1ccccc1)n1cnc(-c2cc(Cl)ccc2-n2cc(Cl)nn2)cc1=O` [Example 121, (S)-N-(benzo[d]isoxazol-3-yl)-2-(4-(5-chloro-2-(4-chloro-1H-1,2,3-triazol-1-yl)phenyl)-6-oxopyrimidin-1(6H)-yl)-3-phenylpropanamide]: the Ki is 158 nM.

Molecule `O=C(Nc1n[nH]c2cccnc12)[C@H](Cc1ccccc1)n1cnc(-c2cc(Cl)ccc2-n2cc(Cl)nn2)cc1=O` [Example 122, (S)-2-(4-(5-chloro-2-(4-chloro-1H-1,2,3-triazol-1-yl)phenyl)-6-oxopyrimidin-1(6H)-yl)-3-phenyl-N-(1H-pyrazolo[4,3-b]pyridin-3-yl)propanamide] had a Ki of 632 nM.

In turn, `O=C(Nc1ccnc2ccc(C(F)(F)F)cc12)[C@H](Cc1ccccc1)n1cnc(-c2cc(Cl)ccc2-n2cc(Cl)nn2)cc1=O` [Example 123, (S)-2-(4-(5-chloro-2-(4-chloro-1H-1,2,3-triazol-1-yl)phenyl)-6-oxopyrimidin-1(6H)-yl)-3-phenyl-N-(6-(trifluoromethyl)quinolin-4-yl)propanamide] registered a Ki of 7150 nM.

Take `O=C(Nc1ccnc2ccc(Cl)cc12)[C@H](Cc1ccccc1)n1cnc(-c2cc(Cl)ccc2-n2cc(Cl)nn2)cc1=O` [Example 124, (S)-2-(4-(5-chloro-2-(4-chloro-1H-1,2,3-triazol-1-yl)phenyl)-6-oxopyrimidin-1(6H)-yl)-N-(6-chloroquinolin-4-yl)-3-phenylpropanamide]: the affinity corresponds to a Ki of 7150 nM.

The molecule `O=C(Nc1n[nH]c2ccccc12)[C@H](Cc1ccccc1)n1cnc(-c2cc(Cl)ccc2-n2cc(Cl)nn2)cc1=O` [Example 125, (S)-2-(4-(5-chloro-2-(4-chloro-1H-1,2,3-triazol-1-yl)phenyl)-6-oxopyrimidin-1(6H)-yl)-N-(1H-indazol-3-yl)-3-phenylpropanamide] registered a Ki of 66.9 nM.

For the molecule `O=C(Nc1ccnc2[nH]ncc12)[C@H](Cc1ccccc1)n1cnc(-c2cc(Cl)ccc2-n2cc(Cl)nn2)cc1=O` [Example 126, (S)-2-(4-(5-chloro-2-(4-chloro-1H-1,2,3-triazol-1-yl)phenyl)-6-oxopyrimidin-1(6H)-yl)-3-phenyl-N-(1H-pyrazolo[3,4-b]pyridin-4-yl)propanamide], the affinity corresponds to a Ki of 213 nM.

`O=C(NC1CCc2ccccc21)[C@H](Cc1ccccc1)n1cnc(-c2cc(Cl)ccc2-n2cc(Cl)nn2)cc1=O` (stereo partly drawn) [Example 127, (2S)-2-(4-(5-chloro-2-(4-chloro-1H-1,2,3-triazol-1-yl)phenyl)-6-oxopyrimidin-1(6H)-yl)-N-(2,3-dihydro-1H-inden-1-yl)-3-phenylpropanamide]: the Ki turned out to be 837 nM.

For the molecule `O=C(NC1COc2ccccc21)[C@H](Cc1ccccc1)n1cnc(-c2cc(Cl)ccc2-n2cc(Cl)nn2)cc1=O` (stereo partly drawn) [Example 128, (2S)-2-(4-(5-chloro-2-(4-chloro-1H-1,2,3-triazol-1-yl)phenyl)-6-oxopyrimidin-1(6H)-yl)-N-(2,3-dihydrobenzofuran-3-yl)-3-phenylpropanamide], affinity was put at a Ki of 826 nM.

Molecule `O=C(O)c1ccc(NC(=O)C(Cc2ccccc2)N2CCC(c3c(F)ccc(Cl)c3F)=CC2=O)cc1` (stereo not drawn) [Example 129, 4-{2-[4-(3-Chloro-2,6-difluorophenyl)-6-oxo-1,2,3,6-tetrahydropyridin-1-yl]-3-phenylpropanamido}benzoic Acid] registered a Ki of 77 nM.

As to `O=C(O)c1ccc(NC(=O)[C@H](Cc2ccccc2)N2CCC(c3cc(Cl)ccc3-n3ccnn3)=CC2=O)cc1` [Example 136, 4-[(2S)-2-{4-[5-chloro-2-(1H-1,2,3-triazol-1-yl)phenyl]-6-oxo-1,2,3,6-tetrahydropyridin-1-yl}-3-phenylpropanamido]benzoic Acid], the Ki was found to be 5.73 nM.

`O=C(O)c1ccc(NC(=O)[C@H](Cc2ccccc2)N2CCC(c3c(-n4ccnn4)ccc(Cl)c3F)=CC2=O)cc1` [Example 137, 4-[(2S)-2-{4-[3-chloro-2-fluoro-6-(1H-1,2,3-triazol-1-yl)phenyl]-6-oxo-1,2,3,6-tetrahydropyridin-1-yl}-3-phenylpropanamido]benzoic Acid]: affinity was put at a Ki of 3.24 nM.

`O=C(O)c1ccc(NC(=O)[C@H](Cc2ccc(NC(=O)C3CC3)cc2)N2CCC(c3c(F)ccc(Cl)c3F)=CC2=O)cc1` [Example 140, (S)-4-(2-(4-(3-chloro-2,6-difluorophenyl)-6-oxo-3,6-dihydropyridin-1(2H)-yl)-3-(4-(cyclopropanecarboxamido)phenyl)propanamido)benzoic Acid] showed a Ki of 552 nM.

The target in the next experiment is T2, purified human plasma kallikrein (Homo sapiens, UniProt P03952).
T2 construct: purchased Enzyme Research Laboratories
T2 sequence (P03952 391-638 limits assumed): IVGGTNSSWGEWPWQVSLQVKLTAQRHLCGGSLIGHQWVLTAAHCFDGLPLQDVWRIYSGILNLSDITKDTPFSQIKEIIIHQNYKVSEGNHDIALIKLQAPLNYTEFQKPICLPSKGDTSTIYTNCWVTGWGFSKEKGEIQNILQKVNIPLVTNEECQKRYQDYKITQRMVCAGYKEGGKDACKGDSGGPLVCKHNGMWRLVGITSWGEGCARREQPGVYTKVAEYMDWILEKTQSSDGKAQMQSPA
T2 sequence (P03952 20-390 partner limits assumed): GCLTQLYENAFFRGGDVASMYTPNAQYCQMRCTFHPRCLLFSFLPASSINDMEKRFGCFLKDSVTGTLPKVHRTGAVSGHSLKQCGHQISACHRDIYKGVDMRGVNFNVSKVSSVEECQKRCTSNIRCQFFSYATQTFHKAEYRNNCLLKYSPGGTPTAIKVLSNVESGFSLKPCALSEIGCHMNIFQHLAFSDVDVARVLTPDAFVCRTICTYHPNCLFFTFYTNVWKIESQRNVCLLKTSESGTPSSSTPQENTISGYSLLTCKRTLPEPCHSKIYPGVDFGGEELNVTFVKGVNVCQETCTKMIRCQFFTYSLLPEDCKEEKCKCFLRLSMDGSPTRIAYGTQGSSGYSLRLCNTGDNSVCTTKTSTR
The experiment can be described thus: Plasma kallikrein enzyme inhibition assay (chromogenic substrate S-2302), Ki. Type of experiment: biochemical. Particulars: substrate S-2302, pH 7.5. On the procedure: The effectiveness of compounds of the present invention as inhibitors of the coagulation Factors XIa, VIIa, IXa, Xa, XIIa, plasma kallikrein, thrombin, chemytrypsin or trypsin can be determined using a relevant purified serine protease, respectively, and an appropriate synthetic substrate. The rate of hydrolysis of the chromogenic or fluorogenic substrate by the relevant serine protease was measured both in the absence and presence of compounds of the present invention. […] A decrease in the rate of absorbance or fluorescence change in the presence of inhibitor is indicative of enzyme inhibition. Such methods are known to one skilled in the art. The results of this assay are expressed as the inhibitory constant, Ki.
Plasma kallikrein determinations were made in 0.1 M sodium phosphate buffer at a pH of 7.5 containing 0.1-0.2 M sodium chloride and 0.5% PEG 8000. Determinations were made using purified human plasma kallikrein (Enzyme Research Laboratories) at a final assay concentration of […] and the synthetic substrate S-2302 (H-(D)-Pro-Phe-Arg-pNA; CHROMOGENIX®) at a concentration of 0.00008-0.0004 M.
Values of Ki were determined by allowing the protease to react with the substrate in the presence of the inhibitor. Reactions were allowed to go for periods of 20-180 minutes (depending on the protease) and the velocities (rate of absorbance or fluorescence change versus time) were measured. The following relationships were used to calculate Ki values: (Vmax*S)/(Km+S) (vo−vs)/vs=I/(Ki*(1+S/Km)) for a competitive inhibitor with one binding site; or vs/vo=A+(B−A)/(1+(IC50/(I)^n)); and Ki=IC50/(1+S/Km) for a competitive inhibitor where: […]
`COC(=O)Cn1cc(NC(=O)[C@H](Cc2ccccc2)n2cnc(-c3cc(Cl)ccc3-n3cc(Cl)nn3)cc2=O)cn1` [Example 10, Methyl 2-{4-[(2S)-2-{4-[5-chloro-2-(4-chloro-1H-1,2,3-triazol-1-yl)phenyl]-6-oxo-1,6-dihydropyrimidin-1-yl}-3-phenylpropanamido]-1H-pyrazol-1-yl}acetate] returned a Ki of 3860 nM.

These data come from patent US10336730B2, “Substituted glycine derived FXIA inhibitors” (BRISTOL-MYERS SQUIBB COMPANY, priority 2015, dated 2019).
